In ChEMBL document CHEMBL4411322 (J Med Chem, 2019):
Calls of active or inactive are those of the source. The calls are words filed in the database; no cut-off is given here. Non-standard residues stand in square brackets, D forms with d. Residues, ends and D or L forms follow the SMILES beside them.

Key:
[1] = species: Homo sapiens; assay: Selectivity ratio of IC50 for human integrin alphavbeta6 receptor to IC50 for human integrin alphavbeta8 receptor
[2] = target: Integrin alpha-V/beta-6 (Homo sapiens, UniProt P06756+P18564); assay: Inhibition of LAP binding to human integrin alphavbeta6 receptor after 1 hr by solid-phase binding assay; type: protein-complex assay; conditions: read-out: IC50
[3] = target: T1, Integrin alpha-V/beta-8 (Homo sapiens, UniProt P06756+P26012); assay: Inhibition of LAP binding to human integrin alphavbeta8 receptor after 1 hr by solid-phase binding assay; type: protein-complex assay; conditions: read-out: IC50
Target sequence in this assay (P06756 31-889 limits assumed): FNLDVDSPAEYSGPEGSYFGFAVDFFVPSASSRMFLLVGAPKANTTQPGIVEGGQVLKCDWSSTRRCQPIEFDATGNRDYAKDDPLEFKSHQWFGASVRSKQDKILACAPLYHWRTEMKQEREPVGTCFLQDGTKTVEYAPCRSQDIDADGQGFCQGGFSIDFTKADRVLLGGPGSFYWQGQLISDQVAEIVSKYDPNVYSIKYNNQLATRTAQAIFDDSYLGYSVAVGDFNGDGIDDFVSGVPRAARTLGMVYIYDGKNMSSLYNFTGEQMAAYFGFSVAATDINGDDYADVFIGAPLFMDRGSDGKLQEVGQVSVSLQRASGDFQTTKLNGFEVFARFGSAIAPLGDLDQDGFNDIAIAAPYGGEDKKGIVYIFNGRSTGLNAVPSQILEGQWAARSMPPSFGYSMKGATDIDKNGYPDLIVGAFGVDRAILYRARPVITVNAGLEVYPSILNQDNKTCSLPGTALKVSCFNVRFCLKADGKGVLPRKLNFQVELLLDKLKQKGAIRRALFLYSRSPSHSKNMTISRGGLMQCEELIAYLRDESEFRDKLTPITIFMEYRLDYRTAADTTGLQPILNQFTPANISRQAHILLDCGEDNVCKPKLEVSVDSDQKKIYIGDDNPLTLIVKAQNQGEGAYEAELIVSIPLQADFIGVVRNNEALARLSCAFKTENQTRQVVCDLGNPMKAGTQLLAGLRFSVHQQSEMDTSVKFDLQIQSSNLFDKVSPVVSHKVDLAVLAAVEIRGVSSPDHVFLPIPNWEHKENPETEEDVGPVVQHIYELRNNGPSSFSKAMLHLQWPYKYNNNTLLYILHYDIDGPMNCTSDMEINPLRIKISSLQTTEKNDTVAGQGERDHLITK
Target sequence in this assay (P06756 891-1048 limits assumed): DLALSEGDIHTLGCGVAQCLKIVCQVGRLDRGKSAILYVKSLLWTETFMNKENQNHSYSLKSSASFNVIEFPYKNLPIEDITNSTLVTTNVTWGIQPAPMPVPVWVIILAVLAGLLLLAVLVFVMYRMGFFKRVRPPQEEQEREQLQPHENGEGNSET
Target sequence in this assay (P26012 43-769 limits assumed): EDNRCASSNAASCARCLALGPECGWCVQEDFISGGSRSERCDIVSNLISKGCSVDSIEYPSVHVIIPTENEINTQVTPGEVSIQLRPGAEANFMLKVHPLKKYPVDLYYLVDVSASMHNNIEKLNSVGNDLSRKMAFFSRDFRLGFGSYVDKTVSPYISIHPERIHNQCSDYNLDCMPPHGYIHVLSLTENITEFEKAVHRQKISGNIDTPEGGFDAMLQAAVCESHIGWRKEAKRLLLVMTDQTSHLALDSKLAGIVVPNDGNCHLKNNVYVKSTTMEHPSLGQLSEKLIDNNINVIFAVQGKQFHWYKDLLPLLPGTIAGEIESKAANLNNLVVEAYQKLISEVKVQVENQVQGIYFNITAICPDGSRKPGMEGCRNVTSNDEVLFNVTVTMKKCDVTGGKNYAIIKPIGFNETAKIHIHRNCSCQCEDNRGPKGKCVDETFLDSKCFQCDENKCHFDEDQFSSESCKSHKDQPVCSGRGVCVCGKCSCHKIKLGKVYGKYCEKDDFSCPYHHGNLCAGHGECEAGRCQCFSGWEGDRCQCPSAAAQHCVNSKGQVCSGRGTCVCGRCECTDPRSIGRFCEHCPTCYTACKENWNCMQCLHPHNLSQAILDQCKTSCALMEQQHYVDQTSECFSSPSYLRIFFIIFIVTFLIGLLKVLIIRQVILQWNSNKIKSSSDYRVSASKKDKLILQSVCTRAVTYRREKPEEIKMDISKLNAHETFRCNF

[4] = target: T1, Integrin alpha-V/beta-8; assay: Binding affinity to alphavbeta8 in human HN cells assessed as fluorescence intensity at 10 uM after 1 hr using BDP FL-labeled compound by immunocytochemical analysis; type: cell-based
[5] = target: T1, Integrin alpha-V/beta-8; assay: Binding affinity to alphavbeta8 in human REC cells assessed as fluorescence intensity at 10 uM after 1 hr using BDP FL-labeled compound by immunocytochemical analysis; type: cell-based
[6] = target: T1, Integrin alpha-V/beta-8; assay: Binding affinity to alphavbeta8 in human BHY cells assessed as fluorescence intensity at 10 uM after 1 hr using BDP FL-labeled compound by immunocytochemical analysis; type: cell-based
[7] = target: Integrin alpha-V/beta-5 (Homo sapiens, UniProt P06756+P18084); assay: Inhibition of human vitronectin binding to human integrin alphavbeta5 receptor after 1 hr by solid-phase binding assay; type: protein-complex assay
[8] = target: Integrin alpha-IIb/beta-3 (Homo sapiens, UniProt P05106+P08514); assay: Inhibition of human fibrinogen binding to human platelet integrin alpha2b-beta3 receptor after 1 hr by solid-phase binding assay
Integrin alpha-IIb/beta-3, sequence (P05106 27-788 limits assumed): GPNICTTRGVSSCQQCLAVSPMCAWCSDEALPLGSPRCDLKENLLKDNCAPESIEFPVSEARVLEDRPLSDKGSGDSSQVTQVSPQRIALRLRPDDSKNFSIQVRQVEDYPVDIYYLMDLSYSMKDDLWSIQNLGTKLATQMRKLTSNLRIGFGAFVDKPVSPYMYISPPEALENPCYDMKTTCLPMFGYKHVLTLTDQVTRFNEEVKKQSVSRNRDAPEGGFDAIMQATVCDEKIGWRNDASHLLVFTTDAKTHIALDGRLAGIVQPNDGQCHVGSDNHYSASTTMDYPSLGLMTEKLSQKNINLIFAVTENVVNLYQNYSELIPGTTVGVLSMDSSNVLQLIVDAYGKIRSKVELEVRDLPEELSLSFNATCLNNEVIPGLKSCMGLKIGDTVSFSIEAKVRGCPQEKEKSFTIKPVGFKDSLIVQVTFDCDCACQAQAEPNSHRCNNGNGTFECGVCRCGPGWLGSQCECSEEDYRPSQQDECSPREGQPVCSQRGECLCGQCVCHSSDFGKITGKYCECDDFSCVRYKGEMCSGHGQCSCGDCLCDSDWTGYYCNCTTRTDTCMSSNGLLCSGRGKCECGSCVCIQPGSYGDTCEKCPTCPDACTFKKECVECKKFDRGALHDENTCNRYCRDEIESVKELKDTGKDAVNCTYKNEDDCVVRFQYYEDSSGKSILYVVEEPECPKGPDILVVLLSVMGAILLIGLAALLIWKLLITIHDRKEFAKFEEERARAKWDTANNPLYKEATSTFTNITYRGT
Integrin alpha-IIb/beta-3, sequence (P08514 32-887 limits assumed): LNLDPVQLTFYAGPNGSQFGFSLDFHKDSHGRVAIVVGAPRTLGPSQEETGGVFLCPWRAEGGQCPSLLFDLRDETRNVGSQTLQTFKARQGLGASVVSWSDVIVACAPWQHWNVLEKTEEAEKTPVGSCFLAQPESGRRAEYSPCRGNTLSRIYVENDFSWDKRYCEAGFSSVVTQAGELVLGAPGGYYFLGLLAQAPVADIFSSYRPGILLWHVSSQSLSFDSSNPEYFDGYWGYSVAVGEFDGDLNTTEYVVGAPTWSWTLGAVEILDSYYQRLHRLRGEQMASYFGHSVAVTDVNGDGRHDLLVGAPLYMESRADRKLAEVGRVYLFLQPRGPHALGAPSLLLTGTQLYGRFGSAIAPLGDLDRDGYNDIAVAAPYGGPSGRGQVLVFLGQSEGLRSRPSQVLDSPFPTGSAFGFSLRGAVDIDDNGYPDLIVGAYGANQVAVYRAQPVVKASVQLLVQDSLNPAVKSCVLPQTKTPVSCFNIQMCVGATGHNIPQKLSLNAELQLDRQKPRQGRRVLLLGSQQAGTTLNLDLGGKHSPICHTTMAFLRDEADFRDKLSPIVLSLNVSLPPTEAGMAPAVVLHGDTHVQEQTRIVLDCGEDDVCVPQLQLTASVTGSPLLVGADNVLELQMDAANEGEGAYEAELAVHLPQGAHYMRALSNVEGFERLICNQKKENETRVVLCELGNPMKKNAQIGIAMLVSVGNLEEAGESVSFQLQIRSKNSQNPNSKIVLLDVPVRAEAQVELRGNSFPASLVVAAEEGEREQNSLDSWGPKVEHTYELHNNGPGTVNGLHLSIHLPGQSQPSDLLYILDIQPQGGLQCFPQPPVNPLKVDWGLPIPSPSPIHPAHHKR
Integrin alpha-IIb/beta-3, sequence (P08514 891-1039 limits assumed): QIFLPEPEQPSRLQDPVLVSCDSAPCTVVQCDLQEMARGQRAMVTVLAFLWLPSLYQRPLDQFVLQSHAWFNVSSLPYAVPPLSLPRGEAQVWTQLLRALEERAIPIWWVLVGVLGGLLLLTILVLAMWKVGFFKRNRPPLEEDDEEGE

Integrin alpha-V/beta-6, sequence (P06756 31-889 limits assumed): as the sequence (P06756 31-889 limits assumed) above
Integrin alpha-V/beta-6, sequence (P06756 891-1048 limits assumed): as the sequence (P06756 891-1048 limits assumed) above
Integrin alpha-V/beta-6, sequence (P18564 22-788 limits assumed): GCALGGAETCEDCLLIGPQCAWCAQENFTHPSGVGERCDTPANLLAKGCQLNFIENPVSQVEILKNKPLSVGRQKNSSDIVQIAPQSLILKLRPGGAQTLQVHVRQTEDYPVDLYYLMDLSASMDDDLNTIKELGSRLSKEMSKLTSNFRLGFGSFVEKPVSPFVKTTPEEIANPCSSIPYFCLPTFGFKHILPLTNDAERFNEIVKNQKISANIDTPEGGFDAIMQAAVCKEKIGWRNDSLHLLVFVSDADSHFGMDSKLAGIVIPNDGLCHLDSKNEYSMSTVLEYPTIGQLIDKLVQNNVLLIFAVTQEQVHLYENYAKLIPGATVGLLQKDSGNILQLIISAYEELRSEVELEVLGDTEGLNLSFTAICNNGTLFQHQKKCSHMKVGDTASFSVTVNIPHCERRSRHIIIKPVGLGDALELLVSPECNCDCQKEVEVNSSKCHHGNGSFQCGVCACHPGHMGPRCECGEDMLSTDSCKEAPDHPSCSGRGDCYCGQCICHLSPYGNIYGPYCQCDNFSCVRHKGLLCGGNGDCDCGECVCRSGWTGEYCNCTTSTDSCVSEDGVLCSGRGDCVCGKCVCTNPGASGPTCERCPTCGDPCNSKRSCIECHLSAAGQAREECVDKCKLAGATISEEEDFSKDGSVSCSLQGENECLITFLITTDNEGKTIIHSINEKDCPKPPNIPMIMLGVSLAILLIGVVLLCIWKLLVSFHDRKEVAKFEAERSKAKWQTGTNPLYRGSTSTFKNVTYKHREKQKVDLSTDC

Structure (SMILES)	Ratio IC50 [1]	IC50 [2]	IC50 [3]	Activity [4]	Activity [5]	Activity [6]	IC50 [7]	IC50 [8]
CC(C)C[C@@H]1NC(=O)[C@H](C)NC(=O)[C@H](CCCCN)N(C)C(=O)[C@H]2CCCN2C(=O)[C@H](CC(C)C)NC(=O)[C@H](CC(=O)O)NC(=O)CNC(=O)[C@H](CCCNC(=N)N)NC1=O	1.4	62 nM	44 nM					
CC(C)C[C@@H]1NC(=O)[C@H](CC(=O)O)NC(=O)CNC(=O)[C@H](CCCNC(=N)N)NC(=O)[C@H](C)NC(=O)[C@H](C)NC(=O)[C@H](C)NC(=O)[C@H](C)NC(=O)[C@@H]2CCCN2C(=O)[C@H]2CCCN2C1=O	1.7	274 nM	166 nM					
CC(C)C[C@@H]1NC(=O)[C@H](CC(=O)O)NC(=O)CNC(=O)[C@H](CCCNC(=N)N)NC(=O)[C@@H](C)NC(=O)[C@H](C)NC(=O)[C@@H]2CCCN2C(=O)[C@H]2CCCN2C1=O	1.9	112 nM	59.4 nM					
CC(C)C[C@@H]1NC(=O)[C@H](C)NC(=O)[C@H](CC(C)C)N(C)C(=O)[C@H]2CCCN2C(=O)[C@H](CC(C)C)NC(=O)[C@H](CC(=O)O)NC(=O)CNC(=O)[C@H](CCCNC(=N)N)NC1=O	5.3	180 nM	34 nM					
CC(C)C[C@@H]1NC(=O)[C@H](CC(=O)O)NC(=O)CNC(=O)[C@H](CCCNC(=N)N)NC(=O)[C@H](c2ccccc2)NC(=O)[C@H](C)NC(=O)[C@@H]2CCCN2C(=O)[C@H]2CCCN2C1=O	4.6	29.6 nM	6.4 nM					
CC1=CC(C)=[N+]2C1=Cc1ccc(CCC(=O)NCCCCCC(=O)NCCCC[C@@H]3NC(=O)[C@@H](Cc4ccccc4)NC(=O)[C@H](CC(=O)O)NC(=O)CCNC(=O)[C@H](CCCNC(=N)N)NC3=O)n1[B-]2(F)F				inactive	inactive	inactive		
CC(C)C[C@@H]1NC(=O)[C@H](CC(=O)O)NC(=O)CNC(=O)[C@H](CCCNC(=N)N)NC(=O)[C@H](Cc2ccccc2)NC(=O)[C@H](CCCCN)N(C)C(=O)[C@H]2CCCN2C(=O)[C@H](Cc2ccccc2)NC(=O)[C@H](C)NC1=O							> 1000 nM	> 1000 nM
CC(C)C[C@@H]1NC(=O)[C@H](CC(=O)O)NC(=O)CNC(=O)[C@H](CCCNC(=N)N)NC(=O)[C@H](CCCCN)NC(=O)[C@H](C)NC(=O)[C@@H]2CCCN2C(=O)[C@H]2CCCN2C1=O	5.6	40.7 nM	7.32 nM					
CC(C)C[C@@H]1NC(=O)[C@H](CC(=O)O)NC(=O)CNC(=O)[C@H](CCCNC(=N)N)NC(=O)[C@H](C)NC(=O)[C@@H]2CCCN2C(=O)[C@H]2CCCN2C(=O)[C@H](Cc2ccccc2)NC(=O)[C@H](C)NC1=O (cyclo(ARGDLAF[dP]P))							> 1000 nM	> 1000 nM
CC(C)C[C@@H]1NC(=O)[C@H](C)NC(=O)[C@@H]2CCCN2C(=O)[C@@H](CC(C)C)N(C)C(=O)[C@H](CC(C)C)NC(=O)[C@H](CC(=O)O)NC(=O)CNC(=O)[C@H](CCCNC(=N)N)NC1=O	6.3	95 nM	15 nM					
CC(=O)NC1C[C@H]2C(=O)NCC(=O)N[C@@H](CC(C)C)C(=O)N[C@@H](CCCNC(=N)N)C(=O)NCC(=O)N[C@@H](CC(=O)O)C(=O)N[C@@H](CC(C)C)C(=O)N3CCC[C@@H]3C(=O)N2C1 (stereo not given in full)	21	223 nM	10.5 nM					
CC(C)C[C@@H]1NC(=O)[C@H](CC(=O)O)NC(=O)[C@H](CO)NC(=O)[C@H](CCCNC(=N)N)NC(=O)[C@H](Cc2ccccc2)NC(=O)[C@H](C)NC(=O)[C@@H]2CCCN2C(=O)[C@H]2CCCN2C1=O	64	369 nM	5.8 nM					
CC(C)C[C@@H]1NC(=O)[C@H](C)NC(=O)[C@H](C)NC(=O)[C@@H]2CCCN2C(=O)[C@H]2CCCN2C(=O)[C@H](CC(C)C)NC(=O)[C@H](CC(=O)O)NC(=O)[C@H]([C@@H](C)O)NC(=O)[C@H](CCCNC(=N)N)NC(=O)[C@H](C)NC1=O	5.7	720 nM	127 nM					
CC(C)C[C@@H]1NC(=O)[C@H](C)NC(=O)[C@H](C(C)C)N(C)C(=O)[C@H]2CCCN2C(=O)[C@H](CC(C)C)NC(=O)[C@H](CC(=O)O)NC(=O)CNC(=O)[C@H](CCCNC(=N)N)NC1=O	1.6	70 nM	44 nM					
